Patent US7595313B2, “Nitric oxide donating diuretic compounds, compositions and methods of use” (NicOx, S.A., priority 2005, dated 2009)
Where a name gives a salt, the structure may show the parent alone.

Assays:
[1] = system: Male Wistar rats; experiment: Determination of the diuresis (urine volume over 6 hours after oral dosing); format: in vivo, rat
Protocol: Procedures were approved by the Institutional Animal Care and Use Committee of NitroMed, Inc. Male Wistar rats (180-200 g) were purchased from Charles River Laboratories (Kingston, N.Y. or Raleigh, N.C.) and allowed to acclimate in the facility for a period of at least 72 h. Rats were randomly housed 2-3 per cage in a light-controlled room with a 12 hour light/dark cycle and allowed ad libitum access to food and water.
Prior to the experiment, each rat was placed in a metabolic cage and allowed to acclimate for a period of 24-48 hours with food and water ad libitum. During this acclimation period, rats received mash food instead of pellet food to prevent contamination of the urine samples. All rats were fasted for 18 hours prior to experimentation. In addition, water was removed 90 minutes prior to oral dosing with test compound or vehicle.
The test compounds were prepared immediately prior to dosing in 0.5% Methocel (F4M Premium Hydroxypropyl Methylcellulose, lot # PF12012N12; Dow Chemical Company, USA) and homogenized with a glass/Teflon pestle motorized homogenizer. Gently vortexed test compounds were administered intragastrically (p.o.; 30 mg/kg or 3 mg/kg) at a dose volume of 3 ml per rat using an 18 gauge gavage needle. Urine volume (ml) was monitored and urine was collected for subsequent electrolyte analysis over a 6 hours period. […] Data are expressed as mean ±SEM; n=6 or 7.

[2] = p.o. 3 mg/kg in 0.5% Methocel, male Wistar rats, 6 hours, mean ± SEM, n=6 or 7

Compound | melting point | also measured
NS(=O)(=O)c1cc2c(cc1Cl)NC(CCCC(=O)NC[C@H](CO[N+](=O)[O-])O[N+](=O)[O-])=NS2(=O)=O [Example 11, 4H-1,2,4-Benzothiadiazine-3-butanamide, 7-(aminosulfonyl)-N-[(2R)-2,3-bis(nitrooxy)propyl]-6-chloro-, 1,1-dioxide] | > 220 °C | Urine collected in 6 hours (mL) (30 mg/kg) ([1]; rat, in vivo, po): 3.7 ± 0.3 mL
NS(=O)(=O)c1cc2c(cc1Cl)NCN(CC[C@@H](CO[N+](=O)[O-])O[N+](=O)[O-])S2(=O)=O [Example 48b, 2H-1,2,4-Benzothiadiazine-7-sulfonamide, 2-[(3S)-3,4-bis(nitrooxy)butyl]-6-chloro-3,4-dihydro-, 1,1-dioxide] | 162 to 163 °C | Urine collected in 6 hours (mL) (3 mg/kg) ([1]; rat, in vivo, po): 4.8 ± 0.8 mL
NS(=O)(=O)c1cc2c(cc1Cl)NCN(CCOc1cc(CO[N+](=O)[O-])cc(CO[N+](=O)[O-])c1)S2(=O)=O [Example 71c, 2H-1,2,4-Benzothiadiazine-7-sulfonamide, 2-[2-[3,5-bis[(nitrooxy)methyl]phenoxy]ethyl]-6-chloro-3,4-dihydro-, 1,1-dioxide] | 72 to 75 °C | Urine collected in 6 hours (mL) (3 mg/kg) ([1]; rat, in vivo, po): 1.3 ± 0.6 mL
CN(CC1Nc2cc(Cl)c(S(N)(=O)=O)cc2S(=O)(=O)N1)C(=O)CN(CCO[N+](=O)[O-])CCO[N+](=O)[O-] (stereo not shown) | 183 to 185 °C (dec.) | –
NS(=O)(=O)c1cc2c(cc1C(F)(F)F)NC1(CCN(C(=O)CCCCO[N+](=O)[O-])CC1)NS2(=O)=O [Example 12c, Spiro[2H-1,2,4-benzothiadiazine-3(4H), 4′-piperidine]-7-sulfonamide, 1′-[5-(nitrooxy)-1-oxopentyl]-6-(trifluoromethyl)-, 1,1-dioxide] | 178 °C (dec.) | –
NS(=O)(=O)c1cc2c(cc1Cl)N=C(NC(=O)CCCCCO[N+](=O)[O-])NS2(=O)=O (as salt: hydrochloride) [Example 5b, Hexanamide, N-[7-(aminosulfonyl)-6-chloro-1,1-dioxido-2H-1,2,4-benzothiadiazin-3-yl]-6-(nitrooxy)-] | 177 to 179 °C | –
NS(=O)(=O)c1cc2c(cc1Cl)NCN(Cc1cc(CO[N+](=O)[O-])cc(OCCCCBr)c1)S2(=O)=O [Example 68d, 2H-1,2,4-Benzothiadiazine-7-sulfonamide, 2-[[3-(4-bromobutoxy)-5[(nitrooxy)methyl]phenyl]methyl]-6-chloro-3,4-dihydro-, 1,1-dioxide] | 80 °C | –
NS(=O)(=O)c1cc2c(cc1C(F)(F)F)NC(CCCCCO)NS2(=O)=O (stereo not shown) [Example 25b, 2H-1,2,4-Benzothiadiazine-7-sulfonamide, 3,4-dihydro-3-(5-hydroxypentyl)-6-(trifluoromethyl)-, 1,1-dioxide] | 97 °C | –
NS(=O)(=O)c1cc2c(cc1C(F)(F)F)NC(CCCCO[N+](=O)[O-])NS2(=O)=O (stereo not shown) [Example 61b, 2H-1,2,4-Benzothiadiazine-7-sulfonamide, 3,4-dihydro-3-[4-(nitrooxy)butyl]-6-(trifluoromethyl)-, 1,1-dioxide] | 171 to 177 °C | –
NS(=O)(=O)c1cc2c(cc1Cl)NC1(CCN(C(=O)CCCCO[N+](=O)[O-])CC1)NS2(=O)=O [Example 18b, Spiro[2H-1,2,4-benzothiadiazine-3(4H), 4′-piperidine]-7-sulfonamide, 6-chloro-1′-[5-(nitrooxy)-1-oxopentyl]-, 1,1-dioxide] | 155 °C (dec.) | –

The next lines start with results.

melting point | Compound | also measured
235 to 237 °C | Cc1c(CN2CNc3cc(Cl)c(S(N)(=O)=O)cc3S2(=O)=O)no[n+]1[O-] [Example 37c, 2H-1,2,4-Benzothiadiazine-7-sulfonamide, 6-chloro-3,4-dihydro-2-[(4-methyl-5-oxido-1,2,5-oxadiazol-3-yl)methyl]-, 1,1-dioxide] | Urine collected in 6 hours (mL) (3 mg/kg) [1, 2]: 2.1 ± 0.6 mL
139 to 143 °C | NS(=O)(=O)c1cc2c(cc1Cl)NCN(C(CO)CO)S2(=O)=O [Example 78b, 2H-1,2,4-Benzothiadiazine-7-sulfonamide, 6-chloro-3,4-dihydro-2-[2-hydroxy-1-(hydroxymethyl)ethyl]-, 1,1-dioxide] | Urine collected in 6 hours (mL) (3 mg/kg) [1, 2]: 2.7 ± 0.8 mL
192 to 197 °C | NS(=O)(=O)c1cc2c(cc1Cl)NCN(CC1CO1)S2(=O)=O (stereo not shown) [Example 81, 2H-1,2,4-benzothiadiazine-7-sulfonamide, 6-chloro-3,4-dihydro-2-(oxiranylmethyl)-, 1,1-dioxide] | –
72 to 78 °C | NS(=O)(=O)c1cc2c(cc1Cl)NCN(CCCC(=O)O)S2(=O)=O [Example 53c, 2H-1,2,4-Benzothiadiazine-2-butanoic acid, 7-(aminosulfonyl)-6-chloro-3,4-dihydro-, 1,1-dioxide] | Urine collected in 6 hours (mL) (3 mg/kg) [1, 2]: 3.7 ± 0.4 mL
218 °C | NS(=O)(=O)c1cc2c(cc1Cl)NC(CCc1cc(CO)cc(CO)c1)NS2(=O)=O (stereo not shown) [Example 79d, 2H-1,2,4-Benzothiadiazine-7-sulfonamide, 3-[2-[3,5-bis(hydroxymethyl)phenyl]ethyl]-6-chloro-3,4-dihydro-, 1,1-dioxide] | –
160 °C | Cc1c(C2Nc3cc(C(F)(F)F)c(S(N)(=O)=O)cc3S(=O)(=O)N2)no[n+]1[O-] (stereo not shown) (as salt: HCl) [Example 10, 2H-1,2,4-Benzothiadiazine-7-sulfonamide, 3,4-dihydro-3-(4-methyl-5-oxido-1,2,5-oxadiazol-3-yl)-6-(trifluoromethyl)-, 1,1-dioxide] | –
176 to 179 °C | NS(=O)(=O)c1cc2c(cc1Cl)NCN(CCCCCCO)S2(=O)=O [Example 66, 2H-1,2,4-Benzothiadiazine-7-sulfonamide, 6-chloro-3,4-dihydro-2-(6-hydroxyhexyl)-, 1,1-dioxide] | –
113 to 117 °C | NS(=O)(=O)c1cc2c(cc1Cl)NC(CCO[N+](=O)[O-])NS2(=O)=O (stereo not shown) [Example 74b, 2H-1,2,4-Benzothiadiazine-7-sulfonamide, 6-chloro-3,4-dihydro-3-[2-(nitrooxy)ethyl]-, 1,1-dioxide] | –
148 to 151 °C (dec.) | NS(=O)(=O)c1cc2c(cc1Cl)NCN(CCCO[N+](=O)[O-])S2(=O)=O [Example 35b, 2H-1,2,4-Benzothiadiazine-7-sulfonamide, 6-chloro-3,4-dihydro-2-[3-(nitrooxy)propyl]-, 1,1-dioxide] | –
> 260 °C | NS(=O)(=O)c1cc2c(cc1Cl)NC(Cc1ccc(CO[N+](=O)[O-])cc1)=NS2(=O)=O [Example 29d, 4H-1,2,4-Benzothiadiazine-7-sulfonamide, 6-chloro-3-[[4-[(nitrooxy)methyl]phenyl]methyl]-, 1,1-dioxide] | –
177 to 179 °C | NS(=O)(=O)c1cc2c(cc1Cl)NCN(CCCCCO)S2(=O)=O [Example 60, 2H-1,2,4-Benzothiadiazine-7-sulfonamide, 6-chloro-3,4-dihydro-2-(5-hydroxypentyl)-, 1,1-dioxide] | –
75 to 77 °C | NS(=O)(=O)c1cc2c(cc1Cl)NCN(CCCCO[N+](=O)[O-])S2(=O)=O (as salt: potassium) [Example 40b, 2H-1,2,4-Benzothiadiazine-7-sulfonamide, 6-chloro-3,4-dihydro-2-[4-(nitrooxy)butyl]-, 1,1-dioxide] | –
